# Reference: patent publication US11634384B2, “Prodrugs of phenolic TRPV1 agonists” (Concentric Analgesics, Inc., priority 2014, dated 2023)
# Like-named read-outs stand apart in the source and are kept apart here.
# Tests used:
# [1] = comparison value; cited from earlier work
# [2] = In vitro (pH stability) assay: intramolecular cyclization-release of capsaicin; type: physicochemical
# Procedure: These compounds are examples of pH activated prodrugs whereby upon exposure to a specific pH, the half-life of the intramolecular cyclization-release reaction is determined. As previously described, the intramolecular cyclization-release reaction results in the concomitant formation of a cyclic urea with the release of the parent drug.
# Compounds were incubated in the buffer/biological media indicated (TRIS® obtained from Sigma-Aldrich, St. Louis, Mo., USA, Catalog No. T1503). The reactions were conducted at either room temperature or 37° C.
# [3] = Solubility assay in DI water; type: physicochemical; details: for solubility at 24 h: thermodynamic from solid, HCl salts, incubated at 50 or 100 mg/mL in DI water, shaking 24 hours, supernatant quantified
# Procedure: In order to determine the aqueous solubility of the compounds described herein, the HCl salts of the following compounds were incubated at either 50 or 100 mg/mL in DI water followed by shaking for 24 hours. The solutions were then centrifuged and visually inspected for insoluble material. In all cases, no insoluble material was observed.
# TRPV receptor [4] = molecular target: T1, TRPV receptor (Rattus norvegicus, UniProt O35433); assay: biochemical; type: binding
# T1 construct: purchased Eurofins, Panlabs/Cerep 286810
# TRPV receptor [5] = molecular target: T1, TRPV receptor; details: historical controls; read-out: historical control value; cited from earlier work
# [6] = pH 7.4, pH = ~7.4 (0.3M aqueous tris buffer), 20° C., read-out: Intramolecular Cyclization-Release Half-life (T1/2)
# [7] = pH 7.4, pH = ~7.4 (1.0M aqueous tris buffer), 37° C., read-out: Intramolecular Cyclization-Release Half-life (T1/2)
# T1 sequence (O35433 whole entry): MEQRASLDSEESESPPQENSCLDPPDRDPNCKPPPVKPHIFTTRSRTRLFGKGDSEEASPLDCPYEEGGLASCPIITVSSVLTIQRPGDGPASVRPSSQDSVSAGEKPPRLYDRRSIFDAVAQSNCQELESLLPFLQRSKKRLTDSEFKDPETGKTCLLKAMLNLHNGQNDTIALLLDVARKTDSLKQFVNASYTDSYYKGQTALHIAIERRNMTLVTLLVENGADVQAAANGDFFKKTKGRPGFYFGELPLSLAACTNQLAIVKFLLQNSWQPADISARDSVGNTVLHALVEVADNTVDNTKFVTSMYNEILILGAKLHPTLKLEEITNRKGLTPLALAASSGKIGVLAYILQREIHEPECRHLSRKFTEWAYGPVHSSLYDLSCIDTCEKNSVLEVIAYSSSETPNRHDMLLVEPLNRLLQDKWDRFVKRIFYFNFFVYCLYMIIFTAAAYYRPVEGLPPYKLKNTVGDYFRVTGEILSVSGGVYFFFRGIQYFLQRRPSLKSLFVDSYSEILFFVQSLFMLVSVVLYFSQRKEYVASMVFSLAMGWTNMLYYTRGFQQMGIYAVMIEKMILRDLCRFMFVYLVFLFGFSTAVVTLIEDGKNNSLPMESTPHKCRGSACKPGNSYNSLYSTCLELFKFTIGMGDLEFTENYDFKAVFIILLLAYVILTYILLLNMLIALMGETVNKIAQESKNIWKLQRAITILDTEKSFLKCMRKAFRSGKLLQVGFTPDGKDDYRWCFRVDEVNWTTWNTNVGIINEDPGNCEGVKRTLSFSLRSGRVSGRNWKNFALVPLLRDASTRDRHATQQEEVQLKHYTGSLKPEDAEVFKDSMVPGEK
smiles,measurement,setting,value
"COc1cc(CNC(=O)CCCCC=CC(C)C)ccc1O [Capsaicin, 8-methyl-N-vanillyl-6-nonenamide]",aqueous solubility of capsaicin in water,[1],~0.064 mg/mL
"COc1cc(CNC(=O)CCCC/C=C/C(C)C)ccc1OC(=O)N(C)CCN [Compound 1, (E)-2-methoxy-4-((8-methylnon-6-enamido)methyl)phenyl (2-aminoethyl)(methyl)carbamate]",half-life,[2]; [6],~24.1 h
"CNCCN(C)C(=O)Oc1ccc(CNC(=O)CCCC/C=C/C(C)C)cc1OC [Compound 2, (E)-2-methoxy-4-((8-methylnon-6-enamido)methyl)phenyl methyl(2-(methylamino)ethyl)carbamate]",half-life,[2]; [6],~3.2 h
"COc1cc(CNC(=O)CCCC/C=C/C(C)C)ccc1OC(=O)N1CCCCC1CN (stereo not drawn) [Compound 3, (E)-2-methoxy-4-((8-methylnon-6-enamido)methyl)phenyl 2-(aminomethyl)piperidine-1-carboxylate]","increase in aqueous solubility from the parent compound, capsaicin",[3]; hydrogen chloride salts vs capsaicin,> 780 fold
same,solubility at 24 h,[3],> 100 mg/mL
same,half-life,[2]; [6],~0.527 h
same,half-life,[2]; [7],~0.215 h
"COc1cc(CNC(=O)CCCC/C=C/C(C)C)ccc1OC(=O)N1CCCC1CN (stereo not drawn) [Compound 4, (E)-2-methoxy-4-((8-methylnon-6-enamido)methyl)phenyl 2-(aminomethyl)pyrrolidine-1-carboxylate]",half-life,[2]; [6],~295 h
"COc1cc(CNC(=O)CCCC/C=C/C(C)C)ccc1OC(=O)N(CCN)CCN [Compound 5, (E)-2-methoxy-4-((8-methylnon-6-enamido)methyl)phenyl bis(2-aminoethyl)carbamate]",solubility at 24 h,[3],> 100 mg/mL
same,half-life,[2]; [6],~1.18 h
same,half-life,[2]; [7],~0.412 h
"COc1cc(CNC(=O)CCCC/C=C/C(C)C)ccc1OC(=O)N(C)CCCN [Compound 6, (E)-2-methoxy-4-((8-methylnon-6-enamido)methyl)phenyl (3-aminopropyl)(methyl)carbamate]",half-life,[2]; [6],~739 h
"CNCC1CCCCN1C(=O)Oc1ccc(CNC(=O)CCCC/C=C/C(C)C)cc1OC (stereo not drawn) [Compound 7, (E)-2-methoxy-4-((8-methylnon-6-enamido)methyl)phenyl 2-((methylamino)methyl)piperidine-1-carboxylate]",solubility at 24 h,[3],> 50 mg/mL
same,"intramolecular cyclization-release half-life, order of magnitude in words",[2],minutes
same,Intramolecular Cyclization-Release Half-life (T1/2),[2]; pH 7.4,~3.1 min
same,half-life,"[2]; pH 7.4, Intramolecular Cyclization-Release Half-life (T1/2)",~0.0733 h
"COc1cc(CNC(=O)CCCC/C=C/C(C)C)ccc1OC(=O)N1CCNCC1 [Compound 8, (E)-2-methoxy-4-((8-methylnon-6-enamido)methyl)phenyl piperazine-1-carboxylate]",inhibition at 100 µM,TRPV receptor [4]; @ 100 uM,23%
same,IC50,TRPV receptor [4]; read-out: IC50,> 100000 nM
same,half-life at 2 weeks,"[2]; pH 7.4, pH = ~7.4 (0.3M aqueous tris buffer), 20° C., conversion to capsaicin over 2 weeks, read-out: Intramolecular Cyclization-Release Half-life (T1/2)",> 336 h
"C=C(C)[C@]12C[C@@H](C)[C@@]34O[C@](Cc5ccccc5)(O[C@@H]1[C@@H]3C=C(COC(=O)Cc1ccc(O)c(OC)c1)C[C@]1(O)C(=O)C(C)=C[C@@H]41)O2 [Resiniferatoxin, reference compound]",IC50,TRPV receptor [4],0.16 nM
same,IC50,TRPV receptor [5],0.46 nM
